Measured values taken from ChEMBL document CHEMBL4680283, “Evaluation of 1,1-cyclopropylidene as a thioether isostere in the 4-thio-thienopyrimidine (TTP) series of antimalarials” (Bioorg Med Chem, 2020).

These molecules were tested on Plasmodium falciparum (assay: Antimalarial activity against chloroquine-sensitive Plasmodium falciparum 3D7 MRA-102 infected in human erythrocytes assessed as reduction in parasite growth incubated for 72 hrs by SYBR green dye based fluorescence assay). Conditions: 3D7 MRA-102, Erythrocyte.
Assay type: functional, organism-based
Molecule `Cc1csc(C(C)(O)c2ncnc3sccc23)n1` (configuration not stated) has an EC50 greater than 23 µM.
`CCOC(=O)/C=C(/c1nc(C)cs1)c1ncnc2sccc12` showed an EC50 of 6.97 µM.
Molecule `Cn1c(C2(c3ncnc4sccc34)CC2)nc2ccccc21` has an EC50 greater than 23 µM.
Work on `Cc1csc(Sc2ncnc3sccc23)n1` yielded an EC50 of 0.037 µM.
`Cc1csc(C(=O)c2ncnc3sccc23)n1` gave an EC50 of 4.08 µM.
`Cc1csc(C2(c3ncnc4sccc34)CC2)n1` gave an EC50 greater than 23 µM.
Molecule `Cn1c(Sc2ncnc3sccc23)nc2ccccc21` has an EC50 of 0.191 µM.
